Data published in patent US12447156B2, “Treating progressive familial intrahepatic cholestasis (PFIC) with IBAT inhibitors” (ALBIREO AB, priority 2020, dated 2025).

Tested on: children with PFIC
Experiment: Pooled analysis of PEDFIC 1 and PEDFIC 2 (up to 48 weeks): efficacy, sleep, responders vs nonresponders
Assay type: in vivo, human
Description: This example describes key outcomes with odevixibat in children with PFIC1 (familial intrahepatic cholestasis 1 [FIC1] deficiency) or PFIC2 ((bile salt export pump [BSEP] deficiency) based on pooled analysis of data from the phase 3 PEDFIC 1 (P1; NCT03566238) and PEDFIC 2 (P2; NCT03659916) studies. This pooled analysis covers up to 48 weeks of odevixibat treatment from P1 and through the planned P2 interim data cut. The following outcomes are described: change in serum bile acids (sBAs), change in pruritus score (measured using the PRUCISION scale; range: 0-4), evaluation of growth and sleep parameters, and safety monitoring. Mean changes in autotaxin (linked to cholestatic pruritus intensity) and plasma 7α-hydroxy-4-cholesten-3-one (p-C4; marker of bile acid synthesis) levels were also summarized.
Patient sleep was evaluated based on caregiver report using the PRUCISION scale and via the clinician- or caregiver-reported Global Impression of Change (CGIC or CaGIC, respectively) sleep scales. Treatment response was defined as an sBA response (sBAs<65 or <102 μmol/L for patients with PFIC1 and PFIC2, respectively) or a pruritus response (a ≥1-point drop from baseline in pruritus score). Mean decreases in caregiver-reported percentage of days with scratching associated with bleeding, needing help falling asleep, and needing soothing were greater among Rs vs NRs (Table 10). At week 48, clinicians and caregivers reported that ≥88% of Rs had moderately or very much better sleep since starting odevixibat (Table 10).
Using pooled data from these studies, changes in parameters of cholestasis, pruritus, and hepatic laboratory markers in patients who responded to odevixibat treatment (Rs) vs treatment nonresponders (NRs). Two responder definitions were examined: 1) sBA response (i.e., sBAs<65 or <102 μmol/L for PFIC1 and PFIC2, respectively) and 2) sBA response or pruritus response (i.e., a ≥1-point drop from baseline in PRUCISION score).

[1] = patients with liver enzyme data at baseline
[2] = patients with liver enzyme data at week 4
[3] = patients with liver enzyme data at week 24
[4] = patients with liver enzyme data at week 48
[5] = pooled P1+P2, all odevixibat-treated patients
[6] = pooled P1+P2, baseline to weeks 37-48
[7] = sBA or pruritus response No, week 24, n 21
[8] = sBA or pruritus response No, weeks 1-4, n 28
[9] = sBA or pruritus response No, weeks 21-24, n 22
[10] = sBA or pruritus response No, weeks 45-48, n 2
[11] = sBA or pruritus response Yes, weeks 1-4, n 47
[12] = sBA or pruritus response Yes, weeks 21-24, n 34
[13] = sBA or pruritus response Yes, weeks 45-48, n 18
[14] = week 4, sBA or Pruritus Response No
[15] = week 4, sBA or Pruritus Response Yes
[16] = week 24, sBA or Pruritus Response No
[17] = week 24, sBA or Pruritus Response Yes
[18] = week 48, sBA or Pruritus Response No
[19] = week 48, sBA or Pruritus Response Yes

SMILES: CCCCC1(CCCC)CN(c2ccccc2)c2cc(SC)c(OCC(=O)N[C@@H](C(=O)N[C@@H](CC)C(=O)O)c3ccc(O)cc3)cc2S(=O)(=O)N1 [Odevixibat, 1,1-dioxo-3,3-dibutyl-5-phenyl-7-methylthio-8-(N-{(R)-α-[N-((S)-1-carboxypropyl)carbamoyl]-4-hydroxybenzyl}carbamoylmethoxy)-2,3,4,5-tetrahydro-1,2,5-benzothiadiazepine]
- sBA or pruritus responders, n (responder rate [n/(n + m)] * 100) [1]: 48 (63) n (%)
- sBA responders, n (responder rate [n/(n + m)] * 100) [1]: 24 (39) n (%)
- sBA or pruritus responders, n (responder rate [n/(n + m)] * 100) [2]: 43 (61) n (%)
- sBA responders, n (responder rate [n/(n + m)] * 100) [2]: 23 (39) n (%)
- sBA or pruritus responders, n (responder rate [n/(n + m)] * 100) [3]: 31 (62) n (%)
- sBA responders, n (responder rate [n/(n + m)] * 100) [3]: 19 (40) n (%)
- sBA or pruritus responders, n (responder rate [n/(n + m)] * 100) [4]: 18 (75) n (%)
- sBA responders, n (responder rate [n/(n + m)] * 100) [4]: 15 (63) n (%)
- mean change from baseline to week 48 in alanine aminotransferase (ALT) [5]: −82 U/L
- mean change from baseline to week 48 in total bilirubin [5]: -18 µmol/L
- mean change in height Z score (pooled P1+P2, baseline to week 48): 0.5
- mean change in observer-reported percentage of days needing help falling asleep [6]: −52%
- mean change in observer-reported percentage of days needing soothing [6]: −51%
- mean change in observer-reported percentage of days seeing blood due to scratching [6]: −25%
- mean change in observer-reported percentage of days sleeping with caregiver [6]: −40%
- patients who met sBA response criteria (pooled P1+P2, during the analysis period, regardless of genotype): ≥ 50%
- mean change from baseline in sBAs (pooled P1+P2, end of the analysis period (up to 48 weeks), n=24): -213 µmol/L
- mean change in pruritus score (pooled P1+P2, end of the analysis period (up to 48 weeks), n=32): −1.4
- mean change in sBAs (pooled P1+P2, four weeks after starting odevixibat, n=68, baseline 250): -88 µmol/L
- mean change in pruritus score (pooled P1+P2, over the first 4-week period, n=75, baseline 2.9): −0.7
- mean positive pruritus assessments (PPAs) (pooled P1+P2, patients with PFIC1): 48%
- mean positive pruritus assessments (PPAs) (pooled P1+P2, patients with PFIC2 (including BSEP subtypes 1 and 2)): above 60%
- mean height Z score (pooled P1+P2, week 48, n=20, baseline −1.9 (n=75)): −0.8
- mean weight Z score (pooled P1+P2, week 48, n=21, baseline −1.1 (n=75)): −0.0
- rate of sBA or pruritus responders (pooled P1+P2, weeks 0-24): 57%
- rate of sBA responders (pooled P1+P2, weeks 0-24): 31%
- rate of sBA or pruritus responders (pooled P1+P2, weeks 25-36): 60%
- rate of sBA responders (pooled P1+P2, weeks 25-36): 48%
- rate of sBA or pruritus responders (pooled P1+P2, weeks 37-48): 65%
- rate of sBA responders (pooled P1+P2, weeks 37-48): 59%
- CGIC sleep, moderately or very much better (sBA or pruritus response No, week 4, n 26): 30.8%
- CaGIC sleep, moderately or very much better (sBA or pruritus response No, week 4, n 28): 25.0%
- CGIC sleep, moderately or very much better [7]: 33.3%
- CaGIC sleep, moderately or very much better [7]: 23.8%
- CaGIC sleep, moderately or very much better (sBA or pruritus response No, week 48, n 3): 33.3%
- CGIC sleep, moderately or very much better (sBA or pruritus response No, week 48, n 4): 25.0%
- % Days needing help falling asleep, mean change from baseline [8]: −10.4%
- % Days needing soothing, mean change from baseline [8]: −6.0%
- % Days with scratching associated with bleeding, mean change from baseline [8]: −6.5%
- % days sleeping with caregiver, mean change from baseline [8]: −3.1%
- Number of awakenings, mean change from baseline [8]: 1.3
- % Days needing help falling asleep, mean change from baseline [9]: −4.9%
- % Days needing soothing, mean change from baseline [9]: 7.8%
- % Days with scratching associated with bleeding, mean change from baseline [9]: 3.2%
- % days sleeping with caregiver, mean change from baseline [9]: 3.1%
- Number of awakenings, mean change from baseline [9]: 1.5
- % Days needing help falling asleep, mean change from baseline [10]: −1.8%
- % Days needing soothing, mean change from baseline [10]: 4.2%
- % Days with scratching associated with bleeding, mean change from baseline [10]: 12.5%
- % days sleeping with caregiver, mean change from baseline [10]: 0.0%
- Number of awakenings, mean change from baseline [10]: −4.3
- CaGIC sleep, moderately or very much better (sBA or pruritus response Yes, week 4, n 39): 48.7%
- CGIC sleep, moderately or very much better (sBA or pruritus response Yes, week 4, n 42): 57.1%
- CaGIC sleep, moderately or very much better (sBA or pruritus response Yes, week 24, n 27): 70.4%
- CGIC sleep, moderately or very much better (sBA or pruritus response Yes, week 24, n 32): 59.4%
- CaGIC sleep, moderately or very much better (sBA or pruritus response Yes, week 48, n 15): 93.3%
- CGIC sleep, moderately or very much better (sBA or pruritus response Yes, week 48, n 18): 88.9%
- % Days needing help falling asleep, mean change from baseline [11]: −23.1%
- % Days needing soothing, mean change from baseline [11]: −22.5%
- % Days with scratching associated with bleeding, mean change from baseline [11]: −16.8%
- % days sleeping with caregiver, mean change from baseline [11]: −23.1%
- Number of awakenings, mean change from baseline [11]: -−3.1
- % Days needing help falling asleep, mean change from baseline [12]: −56.1%
- % Days needing soothing, mean change from baseline [12]: −58.8%
- % Days with scratching associated with bleeding, mean change from baseline [12]: −30.9%
- % days sleeping with caregiver, mean change from baseline [12]: −48.5%
- Number of awakenings, mean change from baseline [12]: -−1.9
- % Days needing help falling asleep, mean change from baseline [13]: −73.0%
- % Days needing soothing, mean change from baseline [13]: −74.6%
- % Days with scratching associated with bleeding, mean change from baseline [13]: −41.5%
- % days sleeping with caregiver, mean change from baseline [13]: −69.1%
- Number of awakenings, mean change from baseline [13]: −11.0
- ALT, change from baseline, Mean (SE) (week 4, sBA Response No): 21 (16) U/L
- Total bilirubin, change from baseline, Mean (SE) (week 4, sBA Response No): −10 (9) μmol/L
- ALT, change from baseline, Mean (SE) (week 4, sBA Response Yes): −28 (37) U/L
- Total bilirubin, change from baseline, Mean (SE) (week 4, sBA Response Yes): −8 (4) μmol/L
- ALT, change from baseline, Mean (SE) [14]: 9 (4) U/L
- Total bilirubin, change from baseline, Mean (SE) [14]: −14 (11) μmol/L
- ALT, change from baseline, Mean (SE) [15]: −2 (24) U/L
- Total bilirubin, change from baseline, Mean (SE) [15]: −6 (4) μmol/L
- ALT, change from baseline, Mean (SE) (week 24, sBA Response No): −10 (11) U/L
- Total bilirubin, change from baseline, Mean (SE) (week 24, sBA Response No): −19 (10) μmol/L
- ALT, change from baseline, Mean (SE) (week 24, sBA Response Yes): −67 (42) U/L
- Total bilirubin, change from baseline, Mean (SE) (week 24, sBA Response Yes): −23 (8) μmol/L
- ALT, change from baseline, Mean (SE) [16]: 5 (8) U/L
- Total bilirubin, change from baseline, Mean (SE) [16]: −23 (13) μmol/L
- ALT, change from baseline, Mean (SE) [17]: −56 (27) U/L
- Total bilirubin, change from baseline, Mean (SE) [17]: −19 (7) μmol/L
- ALT, change from baseline, Mean (SE) (week 48, sBA Response No): −32 (22) U/L
- Total bilirubin, change from baseline, Mean (SE) (week 48, sBA Response No): −6 (14) μmol/L
- ALT, change from baseline, Mean (SE) (week 48, sBA Response Yes): −112 (57) U/L
- Total bilirubin, change from baseline, Mean (SE) (week 48, sBA Response Yes): −25 (11) μmol/L
- ALT, change from baseline, Mean (SE) [18]: −5 (15) U/L
- Total bilirubin, change from baseline, Mean (SE) [18]: 1 (20) μmol/L
- ALT, change from baseline, Mean (SE) [19]: −108 (48) U/L
- Total bilirubin, change from baseline, Mean (SE) [19]: −25 (9) μmol/L
- responders with moderately or very much better sleep since starting odevixibat (clinician and caregiver reported) (week 48, patients with sBA response or pruritus response): ≥ 88%
